Laboratory results: patent US10363239B2, “Method for inhibiting growth of cancer cells” (Pain Therapeutics, Inc., priority 2013, dated 2019)

Assays:
[1] = test system: pS2152FLNA, FLNA-associated PTEN and PP2A in melanoma cells; assay: pS2152FLNA and FLNA-associated PTEN and PP2A in anti-FLNA immunoprecipitate (Western blotting); format: cell-based, human; details: 0.1-5 nM; 4 days
Method: (§1) The effect of Compound C0105 on the levels of pS^2152FLNA and FLNA-associated phosphatases, PTEN and PP2A subclasses was determined in melanoma cells. Cells were treated with vehicle and 0.1-5 nM Compound C0105 for 4 days. Cells were washed, solubilized and the resultant cell lysate was immunoprecipitated with anti-FLNA. The levels of pS^2152FLNA and FLNA-associated phosphatases, PTEN and PP2A subclasses in the anti-FLNA immunoprecipitate were determined by Western blotting. The density of protein bands was quantified by densitometric scanning. […] N=4. **p<0.05, *p<0.01 compared to vehicle (open bars). […]
(§2) The cell lysates were diluted 5-fold with immunoprecipitation buffer and immunoprecipitated with anti-FLNA, -Akt, -mTOR and -ERK2 as described previously [Talbot et al., J Clin Inv 122(4):1-23 (2012); Wang et al., J Neurosci 32(29):9773-9784 (2012)]. The levels of FLNA linkages, activated phosphorylated Akt (pS^473 and pT^308), phosphorylated mTOR (pS^2448) and phosphorylated ERK2 (pY/pT) were determined in anti-FLNA, -Akt, -mTOR and -ERK2 immunoprecipitates by Western blotting with appropriate antibodies directed against PTEN, PP2A, K-RAS, ras-GAP (FLNA linkages), pS^473Akt, pT^308Akt, pS^2448mTOR and pY/pT ERK2 (activation of Akt, mTOR and ERK2).

[2] = test system: pS2152FLNA, FLNA-associated PTEN and PP2A in glioblastoma cells; assay: as above; format: cell-based, human; details: 0.1-5 nM; 4 days
Method: as §1, with “glioblastoma” for “melanoma”, “washed and solubilized,” for “washed, solubilized”, “scan.” for “scanning.”
as §2

[3] = test system: MiaPaCa2 pancreatic cancer cell implants; assay: Xenograft tumor volume study
[4] = test system: pS2448mTOR, pS473Akt, pY/pT-ERK2 in MiaPaCa2 cells; assay: Activated (phosphorylated) mTOR, Akt and ERK2 levels (immunoprecipitation, Western blotting); format: cell-based, human; details: 0.1-5 nM; 4 days
Method: (§3) Cells were treated with vehicle and 0.1-5 nM C0105 for 4 days. Cells were washed, solubilized and the resultant cell lysate was immunoprecipitated with anti-mTOR, -Akt or -ERK2. The levels of pS^2448mTOR, pS^473Akt, pY/pTERK2 in the respective anti-mTOR, -Akt, and -ERK2 immunoprecipitates were determined by Western blotting (not shown). The density of protein bands was measured by densitometric scanning. […] FIGS. 13C and 13G and FIGS. 13D and 13H show similarly obtained data for immunoprecipitates from HMEC and HPEC cells, respectively. Cell treatments and data handling were as discussed in FIG. 12.
(§4) To study the effect of Compound C0105 on pS^2152FLNA levels, FLNA linkages to key regulators including protein phosphatases as well as activated Akt (pS^473-, pT^308-Akt), mTOR ([…]) and ERK (pY/pT-ERK) levels, the cancer and normal cells were cultured to approximately 90% confluency and treated with vehicle or varying concentrations of Compound C0105. The cells were washed with warm phosphate-buffered saline (PBS), pH 7.2, dissociated, homogenized by sonication and solubilized using 0.5% NP-40 (nonoxynol 40), 0.2% sodium cholate and 0.5% digitonin for 1 hour at 4° C.
as §2

[5] = test system: pS2448mTOR, pS473Akt, pY/pT-ERK2 in HPEC; assay: as above; format: cell-based, human; details: 0.1-5 nM; 4 days
Method: as §3, §4, §2

[6] = test system: pS2448mTOR, pS473Akt, pY/pT-ERK2 in HTB-22 cells; assay: as above; format: cell-based, human; details: 0.1-5 nM; 4 days
Method: as §3, §4, §2

[7] = test system: pS2448mTOR, pS473Akt, pY/pT-ERK2 in HMEC; assay: as above; format: cell-based, human; details: 0.1-5 nM; 4 days
Method: as §3, §4, §2

## CN1CCC2(CC1)NCC(=O)N2Cc1ccccc1 [Compound C0105]
[1]
  FLNA-associated PTEN and PP2A levels: increases FLNA-associated PTEN and PP2A levels
  pS2152FLNA level: reduces pS^2152FLNA
[2]
  FLNA-associated PTEN and PP2A levels: increases FLNA-associated PTEN and PP2A levels
  pS2152FLNA level: reduces pS^2152FLNA
[3]; 1 mg/kg twice daily orally for 20 days
  Tumor volume: arrested growth
[3]; 10 mg/kg twice daily orally for 20 days
  Tumor volume: shrank tumors
[3]; 1 or 10 mg/kg twice daily orally
  Vasculature of tumor masses: visibly reduced the vasculature of tumor masses
[4]
  mTOR, Akt and ERK activation (phosphorylated mTOR, Akt and ERK): has little effect on mTOR, Akt and ERK activation
[5]
  mTOR, Akt and ERK activation (phosphorylated mTOR, Akt and ERK): has little effect on mTOR, Akt and ERK activation
[6]
  mTOR, Akt and ERK activation (phosphorylated mTOR, Akt and ERK): has little effect on mTOR, Akt and ERK activation
[7]
  mTOR, Akt and ERK activation (phosphorylated mTOR, Akt and ERK): has little effect on mTOR, Akt and ERK activation
